In brackets after ≈: the same amount, converted by molar mass. Where two headings read alike, the source gives them in different places. Residues, ends and D or L forms follow the SMILES beside them.
Columns and labels:
[1] = Conductivity of dipeptides at their pI; assay type: physicochemical
Description: (§1) Table 1 lists conductivities and solubilities of selected dipeptides useful in the present invention, at their pI.

[2] = pKa, pI and charge distribution of buffers
Description: At the pI, three species coexist.
In an electric field these negative species move in the opposite direction of their positive associated counterions.
Choice of the dipeptide buffer will be on a case-by-case basis depending on the drug compound and the desired level of pH control and conductivity of the formulation.

[3] = pH stability of formulations with TMAB or SMS during electrotransport (Example 4); assay type: in vivo, hairless guinea pigs
Description: The effect of the zwitterionic buffer Gly-His and His-Glu on pH stability of formulations containing small molecular weight drug-like compounds during electrotransport to hairless guinea pigs was studied. Trimethylammonium bromide (TMAB) was used as the cationic model drug and sodium methanesulfate (SMS) was used as the model anionic drug.
The electrodes were connected to a DC power source which supplied a constant level of electric current of 0.100 mA/cm^2. The anodic electrode assembly comprised a skin-contacting gel containing the aqueous solution of His-Glu 66 mM or Gly-His 45 mM and TMAB at 50 mM and 3% HEC. This formulation was separated from the silver anode by a Sybron ion exchange membrane. A gel containing 0.15 M sodium chloride (which acted as a chloride source) was placed between the silver anode and the ion exchange membrane. The cathodic electrode assembly comprised a skin-contacting gel containing the aqueous solution of His-Glu 66 mM or Gly-His 45 mM and SMS 50 mM and 3% HEC. The cathodic gel reservoir was separated from the silver chloride cathode by a Nafion ion exchange membrane. A gel containing 0.1 5M sodium chloride was placed between the cathode and the ion exchange membrane. The ionic strength of the skin-contacting gels was 60 mM.
(§2) Experiments were performed in vivo in hairless guinea pigs. Two animals were used for each condition studied. The electrotransport systems were applied to and removed from the backs of the animals. The two reservoirs were generally spaced about 5 cm apart. The application site was wiped with 70% isopropyl alcohol wipes prior to system application. Donor reservoir gel pH was measured prior to application and after removal of the systems using a HORIBA compact pH meter (Cardy).

[4] = Solubility of dipeptides at their pI; assay type: physicochemical
Description: as §1

[5] = Donor reservoir gel pH during electrotransport of DECAD (Example 3); assay type: in vivo, hairless guinea pigs
Procedure: The effect of the zwitterionic buffer Gly-His at pH 7.5 (pI) on the transdermal delivery of a synthetic radiolabeled decapeptide (DECAD) in the hairless guinea pig was evaluated. […] At pH 7.5 the net charge of DECAD is about +1.6.
The electrodes were connected to a DC power source which supplied a constant level of electric current of 0.100 mA/cm2. The anodic reservoir comprised a skin-contacting gel containing the aqueous solution of the buffering agent and DECAD at the indicated concentrations and 3% hydroxyethyl cellulose (HEC) as well as 10% cholestyramine, a high molecular weight resin in chloride salt form which contributes chloride ions into the donor solution without introducing mobile cations which compete with the DECAD for delivery into the animal. The chloride ions from the cholestyramine resin are provided to react with any silver ions which are generated by electrochemical oxidation of the silver foil anode, thereby removing silver cations (ie, as potentially competing with the DECAD cations) from the donor solution. The cathodic reservoir contained a 0.15 M aqueous solution of sodium chloride in an HEC gel.
as §2, with “Three” for “Two”, “flank” for “backs”, “water” for “70% isopropyl alcohol wipes”, “application. […]” for “application.”

[6] = In vivo iontophoresis, pH control of anodic and cathodic buffer gels (Example 2); parameters: species or system hairless guinea pigs; Ionic strength (approx.): unit not given here; conditions: for Anodic pH after 5 h electrotransport / Cathodic pH after 5 h electrotransport: 0.1 mA/cm^2
Procedure: In vivo iontophoresis experiments were performed using custom built electrotransport systems. […] This formulation was separated from the anode electrode by a Sybron ion exchange membrane. […] The cathode-compartment comprised a skin-contacting gel containing the aqueous solution of the buffering agent at the indicated concentration and 3% HEC. This formulation was separated from the cathode electrode by a Nafion ion exchange membrane. […] The electrodes were connected to a DC power source which supplied a constant level of electric current of 0.1 mA/cm^2. Experiments were performed in vivo in hairless guinea pigs. Three animals were used for each condition studied. The electrotransport systems were applied to and removed from the flank of the animals. The two reservoirs were generally spaced about 5 cm apart. The application site was wiped with water prior to system application. pH of the gels was measured prior to application and after removal of the systems using a HORIBA compact pH […]).

[7] = hGH stability in HEC gel at 32° C. (RP, SEC, IE HPLC); assay type: physicochemical; conditions: for hGH remaining intact: HEC gel, 32° C., after 6 hours
Procedure: A sufficient quantity of His-Gly from BACHEM Bioscience was added to distilled water to make a 12.5 mM buffer solution having a pH of 6.75. A human growth hormone (hGH) formulation obtained from BresaGen contained growth hormone, mannitol and glycine in the following proportions: 1:5:1 (w/w). The original hGH formulation was subjected to purification (diafiltration against 12.5 mM His-Gly buffer to remove the mannitol and glycine) and the hGH concentration was adjusted to about 20 mg/ml via ultrafiltration.
Aliquots of 250 μl of the resulting hGH stock solution were placed into Eppendorf tubes, each containing 5 mg (2%) of hydroxyethyl cellulose (HEC) as a gelling agent and the samples were carefully mixed. After gelation, the samples were tested for stability at body temperature. The samples were warmed to 32° C. (ie, skin temperature) and assayed at 0, 1, 2, 3, 4, 5, and 6 hours to determine the percent of hGH remaining intact in the gel. hGH from the gels was extracted by dissolving the gel in 25 ml of His-Gly buffer. All hGH samples were analyzed by reverse-phase high performance liquid chromatography (RP), size-exclusion high performance liquid chromatography (SEC), and ion-exchange high performance liquid chromatography (IE) to determine percentage of intact hGH remaining (%LS in FIG. 9). The percent of hGH remaining was calculated by measuring the concentration of the hGH (as determined using one of three high performance liquid chromatography methods) and dividing that by the initial hGH concentration.
As a comparison, hGH stability studies were run under identical conditions to those described above, except histidine buffer was substituted for His-Gly.

[8] = Gly-His 10 mM, DECAD 5 mM, wearing time 5 h
[9] = Gly-His 30 mM, DECAD 5 mM, wearing time 5 h
[10] = Gly-His 100 mM, DECAD 0.5 mM, wearing time 5 h
[11] = Gly-His 100 mM, DECAD 5 mM, wearing time 5 h
[12] = Gly-His 100 mM, DECAD 5 mM, wearing time 24 h
[13] = Gly-His 250 mM, DECAD 5 mM, wearing time 5 h
[14] = His-Gly buffered hGH gel stored at 32° C.

NCC(=O)N[C@@H](Cc1cnc[nH]1)C(=O)O [Gly-His] (H-Gly-His-OH)
Conductivity at 10^−2 Molar [1]: 52 μS/cm | pI [2]: 7.55 | pka A [2]: 2.42 | pI ([2]; Table 1): 7.55 | pI ([2]; Table 2): 7.55 | species presenting a net charge (salt form) at the pI ([2]; at pI): 30% | neutral species at the pI ([2]; at pI, net charge of zero): 70% | % salt ([2]; fraction of dipeptide carrying a net charge in aqueous solution at pH equal to pI): 22% | net charge at pH 7.5 ([2]; pH 7.5): essentially zero | Final pH ([3]; Anode, drug TMAB 50 mM): 6.9 | Initial pH ([3]; Anode, drug TMAB 50 mM): 7.4 | Final pH ([3]; Cathode, drug SMS 50 mM): 7.9 | Initial pH ([3]; Cathode, drug SMS 50 mM): 7.5 | pH control with TMAB or SMS ([3]; all experimental conditions tested (Table 7)): good pH control | Solubility [4]: 1000 mM (≈ 212 mg/mL) | Final pH [5, 8]: 7.0 | Initial pH [5, 8]: 6.9 | Final pH [5, 9]: 7.0 | Initial pH [5, 9]: 7.1 | Final pH [5, 10]: 7.2 | Initial pH [5, 10]: 7.3 | Final pH [5, 11]: 7.3 | Initial pH [5, 11]: 7.4 | Final pH [5, 12]: 7.3 | Initial pH [5, 12]: 7.4 | Final pH [5, 13]: 7.3 | Initial pH [5, 13]: 7.4 | pH control with DECAD ([5]; all experimental conditions tested (Table 6)): capable of assuring pH control | pH after 24 h electrotransport ([6]; Anode): 7.2 | pH after 24 h electrotransport ([6]; Cathode, listed as Gly-His 100 mM): 7.3 | pH after 24 h electrotransport ([6]; Cathode, listed as Gly-His 250 mM): 7.0 | Ionic strength (approx.) ([6]; Table 3, anodic buffer gel, listed as Gly-His 30 mM): ~0.007 | Ionic strength (approx.) ([6]; Table 3, anodic buffer gel, listed as Gly-His 100 mM): ~0.02 | Ionic strength (approx.) ([6]; Table 3, anodic buffer gel, listed as Gly-His 250 mM): ~0.06 | Ionic strength (approx.) ([6]; Table 4, cathodic buffer gel, listed as Gly-His 100 mM): ~0.02 | Ionic strength (approx.) ([6]; Table 4, cathodic buffer gel, listed as Gly-His 250 mM): ~0.06 | Initial pH ([6]; Table 5, Anode, listed as Gly-His 100 mM): 7.3 | Initial pH ([6]; Table 5, Anode, listed as Gly-His 250 mM): 7.2 | Initial pH ([6]; Table 5, Cathode, listed as Gly-His 100 mM): 7.6 | Initial pH ([6]; Table 5, Cathode, listed as Gly-His 250 mM): 6.9 | Anodic pH after 5 h electrotransport ([6]; anodic gel, listed as Gly-His 30 mM): 7.0 | Anodic pH after 5 h electrotransport ([6]; anodic gel, listed as Gly-His 100 mM): 7.3 | Anodic pH after 5 h electrotransport ([6]; anodic gel, listed as Gly-His 250 mM): 7.3 | Initial pH ([6]; anodic gel, prior to application, listed as Gly-His 30 mM): 7.1 | Initial pH ([6]; anodic gel, prior to application, listed as Gly-His 100 mM): 7.4 | Initial pH ([6]; anodic gel, prior to application, listed as Gly-His 250 mM): 7.4 | Cathodic pH after 5 h electrotransport ([6]; cathodic gel, listed as Gly-His 100 mM): 7.3 | Cathodic pH after 5 h electrotransport ([6]; cathodic gel, listed as Gly-His 250 mM): 7.4 | Initial pH ([6]; cathodic gel, prior to application, listed as Gly-His 100 mM): 7.6 | Initial pH ([6]; cathodic gel, prior to application, listed as Gly-His 250 mM): 7.5 | pH control of electrotransport formulations ([6]; electrotransport experiments in animals, at their pI, for several hours): capable of assuring pH control | pH control of a cathodic electrotransport formulation ([6]; for at least 5 hours, dipeptides at their pI): capable of assuring pH control | pH control of an anodic electrotransport formulation ([6]; for several hours, dipeptides at their pI): capable of assuring pH control | pH control of anodic and cathodic electrotransport formulations ([6]; for up to 24 hours, at their pI): capable of assuring pH control

hGH: human growth hormone formulation obtained from BresaGen, diafiltered against buffer, about 20 mg/ml in 2% HEC gel
hGH remaining intact ([7]; His-Gly buffer 12.5 mM): about 80% | degradation products [7, 14]: No extra degradation products were discovered | loss of protein through degradation [7, 14]: no significant loss of protein through degradation | hGH remaining intact ([7]; histidine buffer): approximately 50%

Reference: patent US20070078096A1, “Buffered drug formulations for transdermal electrotransport delivery” (priority 1997, published 2007)
